Source: US10363257B2 (ZENITH EPIGENETICS LTD., priority 2013, dated 2019)

What was measured:
[1] = molecular target: T1, Brd4 bromodomain 1 (BRD4(1)) (Homo sapiens, UniProt O60885); assay: Inhibition of tetra-acetylated histone H4 binding to Brd4 bromodomain 1 (TR-FRET); conditions: tetra-acetylated histone H4 peptide, first bromodomain of Brd4
T1 construct: made in house; host or cells: E. coli BL21(DE3)
Summary of the method: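 His-tagged BRD4(1) from E. coli (200 nM) with biotinylated tetra-acetylated H4 peptide (25-50 nM), Eu-cryptate streptavidin and XL665 anti-His, in HEPES pH 7.4/phosphate/KF buffer, 0.2% DMSO. After 2 h at room temperature, TR-FRET 665/620 nm ratio read; IC50 from dose-response curves.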

c-myc = assay: Inhibition of c-myc expression (mRNA, real-time PCR) in MV4-11 cells; assay type: cell-based; conditions: Human AML MV4-11 cells, 3 h, cMYC mRNA
Experimental: MV4-11 cells (CRL-9591) were plated at a density of 2.5×10^4 cells per well in 96 well U-bottom plates and treated with increasing concentrations of test compound or DMSO (0.1%) in IMDM media containing 10% FBS and penicillin/streptomycin, and incubated for 3 h at 37° C. Triplicate wells were used for each concentration. Cells were pelleted by centrifugation and harvested using the mRNA Catcher PLUS kit according to manufacturer's instructions. The eluted mRNA isolated was then used in a one-step quantitative real-time PCR reaction, using components of the RNA UltraSense™ One-Step Kit (Life Technologies) together with Applied Biosystems TaqMan® primer-probes for cMYC and Cyclophilin. Real-time PCR plates were run on a VIaTM7 real time PCR machine (Applied Biosystems), data was analyzed, normalizing the Ct values for cMYC to an internal control, prior to determining the fold expression of each sample, relative to the control.

human AML MV-4-11 cells = assay: Inhibition of cell proliferation in MV4-11 cells (CellTiter Aqueous One); assay type: cell-based; conditions: MV4-11, 72 h
Experimental: MV4-11 cells: 96-well plates were seeded with 5×10^4 cells per well of exponentially growing human AML MV-4-11 (CRL-9591) cells and immediately treated with two-fold dilutions of test compounds, ranging from 30 μM to 0.2 μM. Triplicate wells were used for each concentration, as well as a media only and three DMSO control wells. The cells and compounds were incubated at 37° C., 5% CO2 for 72 h before adding 20 μL of the CellTiter Aqueous One Solution (Promega) to each well and incubating at 37° C., 5% CO2 for an additional 3-4 h. The absorbance was taken at 490 nm in a spectrophotometer and the percentage of proliferation relative to DMSO-treated cells was calculated after correction from the blank well. IC50 were calculated using the GraphPad Prism software.

| Structure (SMILES) | IC50 [1] | IC50 (c-myc) | IC50 (human AML MV-4-11 cells) |
| --- | --- | --- | --- |
| Cc1noc(C)c1-c1cc(S(C)(=O)=O)c2nc(C)n(Cc3ccccc3)c2c1 [compound 168, 4-(1-benzyl-2-methyl-4-(methylsulfonyl)-1H-benzo[d]imidazol-6-yl)-3,5-dimethylisoxazole] | ≤ 300 nM | 300 to 3000 nM | 300 to 3000 nM |
| Cc1noc(C)c1-c1cnc2[nH]c(=O)n(CC3CCC3)c2c1 [compound 203, 1-(cyclobutylmethyl)-6-(3,5-dimethylisoxazol-4-yl)-1H-imidazo[4,5-b]pyridin-2(3H)-one] | ≤ 300 nM | 3000 to 30000 nM | 3000 to 30000 nM |
| CC(=O)Nc1cc(-c2c(C)noc2C)cc2c1nc(N1CCC1)n2Cc1ccccc1 [compound 130, N-(2-(azetidin-1-yl)-1-benzyl-6-(3,5-dimethylisoxazol-4-yl)-1H-benzo[d]imidazol-4-yl)acetamide] | ≤ 300 nM | 300 to 3000 nM | 300 to 3000 nM |
| Cc1noc(C)c1-c1cnc2nc(NC3CCOCC3)n(CC3CCCC3)c2c1 [compound 222, 1-(cyclopentylmethyl)-6-(3,5-dimethylisoxazol-4-yl)-N-(tetrahydro-2H-pyran-4-yl)-1H-imidazo[4,5-b]pyridin-2-amine] | ≤ 300 nM | ≤ 300 nM | ≤ 300 nM |
| Cc1noc(C)c1-c1cnc2nc(NCCO)n(Cc3ccccc3)c2c1 [compound 196, 2-((1-benzyl-6-(3,5-dimethylisoxazol-4-yl)-1H-imidazo[4,5-b]pyridin-2-yl)amino)ethanol] | ≤ 300 nM | ≤ 300 nM | 300 to 3000 nM |
| Cc1noc(C)c1-c1cc([N+](=O)[O-])c2nc(C)n([C@H](C)c3ccccc3)c2c1 [compound 126, (R)-3,5-dimethyl-4-(2-methyl-4-nitro-1-(1-phenylethyl)-1H-benzo[d]imidazol-6-yl)isoxazole] | ≤ 300 nM | ≤ 300 nM | 300 to 3000 nM |
| Cc1noc(C)c1-c1cnc2nc(N3CCCC3)n(Cc3ccccc3)c2c1 [compound 195, 4-(1-benzyl-2-(pyrrolidin-1-yl)-1H-imidazo[4,5-b]pyridin-6-yl)-3,5-dimethylisoxazole] | ≤ 300 nM | ≤ 300 nM | ≤ 300 nM |
| Cc1noc(C)c1-c1cnc2nc(NCCN(C)C)n(Cc3ccccc3)c2c1 [compound 212, N1-(1-benzyl-6-(3,5-dimethylisoxazol-4-yl)-1H-imidazo[4,5-b]pyridin-2-yl)-N2,N2-dimethylethane-1,2-diamine] | ≤ 300 nM | 300 to 3000 nM | 300 to 3000 nM |
| Cc1noc(C)c1-c1cnc2nc(C)n(CC3CCCCC3)c2c1 [compound 191, 4-(1-(cyclohexylmethyl)-2-methyl-1H-imidazo[4,5-b]pyridin-6-yl)-3,5-dimethylisoxazole] | ≤ 300 nM | ≤ 300 nM | 300 to 3000 nM |
| CCc1nc2ncc(-c3c(C)noc3C)cc2n1Cc1ccccc1 [compound 128, 4-(1-benzyl-2-ethyl-1H-imidazo[4,5-b]pyridin-6-yl)-3,5-dimethylisoxazole] | ≤ 300 nM | 300 to 3000 nM | 300 to 3000 nM |
| Cc1noc(C)c1-c1cc(N2CCOCC2)c2nc(C)n(Cc3ccccc3)c2c1 [compound 182, 4-(1-benzyl-6-(3,5-dimethylisoxazol-4-yl)-2-methyl-1H-benzo[d]imidazol-4-yl)morpholine] | ≤ 300 nM | 300 to 3000 nM | 300 to 3000 nM |
| Cc1noc(C)c1-c1cnc2[nH]c(=O)n(CC3CCCC3)c2c1 [compound 202, 1-(cyclopentylmethyl)-6-(3,5-dimethylisoxazol-4-yl)-1H-imidazo[4,5-b]pyridin-2(3H)-one] | ≤ 300 nM | 300 to 3000 nM | 300 to 3000 nM |
| Cc1noc(C)c1-c1cc(F)c2[nH]c(=O)n(Cc3ccccc3)c2c1 [compound 163, 1-benzyl-6-(3,5-dimethylisoxazol-4-yl)-4-fluoro-1H-benzo[d]imidazol-2(3H)-one] | ≤ 300 nM | 300 to 3000 nM | 300 to 3000 nM |
